Source: ChEMBL document CHEMBL5365530, “Identification of a Novel, Potent, and Orally Bioavailable Guanidine-Based SHP2 Allosteric Inhibitor from Virtual Screening and Rational Structural Optimization for the Treatment of KRAS Mutant Cancers” (J Med Chem, 2023)

Assays:
[1] = target: T1, Tyrosine-protein phosphatase non-receptor type 11 (Homo sapiens, UniProt Q06124); experiment: Allosteric Inhibition of H2N-LN(pY)IDLDLV(dPEG8)LST(pY)ASINFQKASINFQK-amide-activated SHP2 (unknown origin) using DiFMUP as substrate pretreated with enzyme for 1 hr followed by substrate addition and measured after 20 mins by fluorescence based analysis
T1 sequence (Q06124 whole entry): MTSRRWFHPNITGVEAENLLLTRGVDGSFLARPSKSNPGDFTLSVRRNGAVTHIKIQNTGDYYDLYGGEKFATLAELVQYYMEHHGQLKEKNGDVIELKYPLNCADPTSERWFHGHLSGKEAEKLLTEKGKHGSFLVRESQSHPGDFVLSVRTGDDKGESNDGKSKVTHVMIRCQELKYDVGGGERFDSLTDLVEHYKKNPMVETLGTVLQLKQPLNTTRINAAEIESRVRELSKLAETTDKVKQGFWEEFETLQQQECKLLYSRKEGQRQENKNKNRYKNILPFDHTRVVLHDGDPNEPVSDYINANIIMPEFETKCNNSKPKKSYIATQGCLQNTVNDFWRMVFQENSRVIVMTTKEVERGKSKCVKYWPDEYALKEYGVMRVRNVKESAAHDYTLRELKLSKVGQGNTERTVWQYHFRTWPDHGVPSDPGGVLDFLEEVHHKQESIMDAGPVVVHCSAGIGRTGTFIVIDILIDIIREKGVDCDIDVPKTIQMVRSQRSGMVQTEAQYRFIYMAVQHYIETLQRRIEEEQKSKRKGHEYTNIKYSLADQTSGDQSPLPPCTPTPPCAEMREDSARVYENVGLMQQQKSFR

[2] = target: T1, Tyrosine-protein phosphatase non-receptor type 11; experiment: Inhibition of SHP2 PTP domain (unknown origin) using DiFMUP as substrate pretreated with enzyme for 20 mins followed by substrate addition and measured for 2 hrs by fluorescence based analysis
[3] = target: Tyrosine-protein phosphatase non-receptor type 6 (Homo sapiens, UniProt P29350); experiment: Inhibition of SHP1 (unknown origin) using DiFMUP as substrate pretreated with enzyme for 20 mins followed by substrate addition and measured for 2 hrs by fluorescence based analysis
Tyrosine-protein phosphatase non-receptor type 6, sequence (P29350 whole entry): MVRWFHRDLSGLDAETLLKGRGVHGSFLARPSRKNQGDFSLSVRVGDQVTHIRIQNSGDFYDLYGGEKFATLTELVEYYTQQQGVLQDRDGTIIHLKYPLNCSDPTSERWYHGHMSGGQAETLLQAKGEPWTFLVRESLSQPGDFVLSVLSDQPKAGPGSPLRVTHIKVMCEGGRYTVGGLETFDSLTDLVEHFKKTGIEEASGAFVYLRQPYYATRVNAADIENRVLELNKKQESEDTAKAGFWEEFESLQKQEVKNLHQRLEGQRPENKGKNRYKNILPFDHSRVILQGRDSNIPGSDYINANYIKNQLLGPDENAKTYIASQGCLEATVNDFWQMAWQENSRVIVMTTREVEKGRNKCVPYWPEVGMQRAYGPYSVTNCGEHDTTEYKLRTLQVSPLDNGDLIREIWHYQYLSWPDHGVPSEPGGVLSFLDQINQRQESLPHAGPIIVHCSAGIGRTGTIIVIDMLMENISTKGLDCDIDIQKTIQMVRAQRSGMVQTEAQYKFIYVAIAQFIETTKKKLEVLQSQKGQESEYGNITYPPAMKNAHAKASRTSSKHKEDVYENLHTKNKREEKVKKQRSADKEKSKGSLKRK

MIA PaCa-2 [4] = experiment: Antiproliferative activity against human MIA PaCa-2 cells harboring KRASG12C mutant assessed as inhibition of cell growth incubated for 72 hrs by CellTiter-LumiII Luminescent assay; assay type: functional, cell-based; conditions: MIA PaCa-2, 72 h
KYSE-520 cell line = experiment: Antiproliferative activity against human KYSE-520 cells assessed as inhibition of cell growth incubated for 72 hrs by CellTiter-LumiII Luminescent assay; assay type: functional, cell-based; conditions: KYSE-520, 72 h
MIA PaCa-2 [5] = experiment: Induction of apoptosis in human MIA PaCa-2 cells assessed as proportion of viable cells at 2.5 uM incubated for 72 hrs by AnnexinV-FITC/PI staining based flow cytometry (reference value: 98.19%); assay type: functional
MIA PaCa-2 [6] = experiment: Induction of apoptosis in human MIA PaCa-2 cells assessed as proportion of early apoptotic cells at 2.5 uM incubated for 72 hrs by AnnexinV-FITC/PI staining based flow cytometry (reference value: 0.26%); assay type: functional
MIA PaCa-2 [7] = experiment: Induction of apoptosis in human MIA PaCa-2 cells assessed as proportion of late apoptotic cells at 2.5 uM incubated for 72 hrs by AnnexinV-FITC/PI staining based flow cytometry (reference value: 1.36%); assay type: functional
MIA PaCa-2 [8] = experiment: Induction of apoptosis in human MIA PaCa-2 cells assessed as proportion of necrotic cells at 2.5 uM incubated for 72 hrs by AnnexinV-FITC/PI staining based flow cytometry (reference value: 0.19%); assay type: functional
MIA PaCa-2 [9] = experiment: Induction of apoptosis in human MIA PaCa-2 cells assessed as proportion of viable cells at 5 uM incubated for 72 hrs by AnnexinV-FITC/PI staining based flow cytometry (reference value: 98.19%); assay type: functional
MIA PaCa-2 [10] = experiment: Induction of apoptosis in human MIA PaCa-2 cells assessed as proportion of early apoptotic cells at 5 uM incubated for 72 hrs by AnnexinV-FITC/PI staining based flow cytometry (reference value: 0.26%); assay type: functional
MIA PaCa-2 [11] = experiment: Induction of apoptosis in human MIA PaCa-2 cells assessed as proportion of late apoptotic cells at 5 uM incubated for 72 hrs by AnnexinV-FITC/PI staining based flow cytometry (reference value: 1.36%); assay type: functional
MIA PaCa-2 [12] = experiment: Induction of apoptosis in human MIA PaCa-2 cells assessed as proportion of necrotic cells at 5 uM incubated for 72 hrs by AnnexinV-FITC/PI staining based flow cytometry (reference value: 0.19%); assay type: functional
MIA PaCa-2 [13] = experiment: Induction of apoptosis in human MIA PaCa-2 cells assessed as proportion of viable cells at 10 uM incubated for 72 hrs by AnnexinV-FITC/PI staining based flow cytometry (reference value: 98.19%); assay type: functional
MIA PaCa-2 [14] = experiment: Induction of apoptosis in human MIA PaCa-2 cells assessed as proportion of early apoptotic cells at 10 uM incubated for 72 hrs by AnnexinV-FITC/PI staining based flow cytometry (reference value: 0.26%); assay type: functional
MIA PaCa-2 [15] = experiment: Induction of apoptosis in human MIA PaCa-2 cells assessed as proportion of late apoptotic cells at 10 uM incubated for 72 hrs by AnnexinV-FITC/PI staining based flow cytometry (reference value: 1.36%); assay type: functional
MIA PaCa-2 [16] = experiment: Induction of apoptosis in human MIA PaCa-2 cells assessed as proportion of necrotic cells at 10 uM incubated for 72 hrs by AnnexinV-FITC/PI staining based flow cytometry (reference value: 0.19%); assay type: functional
[17] = Half life in ICR mouse at 1 mg/kg, iv measured for 24 hrs by LC-MS/MS analysis; assay type: ADME, organism-based; conditions: in vivo
[18] = Clearance in ICR mouse at 1 mg/kg, iv measured for 24 hrs by LC-MS/MS analysis; assay type: ADME, organism-based; conditions: in vivo
[19] = Volume of distribution in ICR mouse at 1 mg/kg, iv measured for 24 hrs by LC-MS/MS analysis; assay type: ADME, organism-based; conditions: in vivo
[20] = AUC in ICR mouse at 1 mg/kg, iv measured for 24 hrs by LC-MS/MS analysis; assay type: ADME, organism-based; design: time 24 hrs, dose 1 mg/kg, route iv; conditions: in vivo
[21] = Half life in ICR mouse at 10 mg/kg, po measured for 24 hrs by LC-MS/MS analysis; assay type: ADME, organism-based; conditions: in vivo
[22] = Tmax in ICR mouse at 10 mg/kg, po measured for 24 hrs by LC-MS/MS analysis; assay type: ADME, organism-based; conditions: in vivo
[23] = Cmax in ICR mouse at 10 mg/kg, po measured for 24 hrs by LC-MS/MS analysis; assay type: ADME, organism-based; design: time 24 hrs, dose 10 mg/kg, route po; conditions: in vivo
[24] = AUC in ICR mouse at 10 mg/kg, po measured for 24 hrs by LC-MS/MS analysis; assay type: ADME, organism-based; design: dose 10 mg/kg, time 24 hrs, route po; conditions: in vivo
[25] = Oral bioavailability in ICR mouse at 10 mg/kg measured for 24 hrs by LC-MS/MS analysis; assay type: ADME, organism-based; conditions: in vivo
MIA PaCa-2 [26] = experiment: Antitumor activity against human MIA PaCa-2 cells xenografted in BALB/c nude mouse assessed as inhibition of tumor growth at 40 mg/kg, po administered daily for 17 days; assay type: functional; conditions: time 17 day
[27] = Toxicity against BALB/c nude mouse xenografted with human MIA PaCa-2 cells assessed as animal's death at 20 to 40 mg/kg, po administered daily for 17 days; assay type: organism-based; conditions: in vivo, 408 h, dose 20-40 mg/kg, time 17 day
[28] = Toxicity against BALB/c nude mouse xenografted with human MIA PaCa-2 cells assessed as effect on body weight at 20 to 40 mg/kg, po administered daily for 17 days; assay type: organism-based; conditions: in vivo, 408 h, dose 20-40 mg/kg, time 17 day
RAW264.7 = experiment: Cytotoxicity against mouse RAW264.7 cells assessed as cell viability at 10 to 30 uM incubated for 72 hrs by CellTiter-LumiII Luminescent assay; assay type: toxicity, cell-based; conditions: raw264.7, 72 h, dose 10-30 µM
[29] = Hepatotoxicity in ICR mouse assessed as increase in plasma AST level at 100 mg/kg, po administered once every 2 days and measured on day 14; assay type: toxicity, organism-based; conditions: in vivo, 336 h, time 14 day
[30] = Hepatotoxicity in ICR mouse assessed as increase in plasma ALT level at 100 mg/kg, po administered once every 2 days and measured on day 14; assay type: toxicity, organism-based; conditions: in vivo, 336 h, time 14 day
[31] = Hepatotoxicity in ICR mouse assessed as increase in plasma ALP level at 100 mg/kg, po administered once every 2 days and measured on day 14; assay type: toxicity, organism-based; conditions: in vivo, 336 h, time 14 day

Work on `COc1ccccc1/N=C(\N)N1CCN(c2cnc(-c3cccc(Cl)c3Cl)c(N)n2)CC1` yielded an IC50 [1] of 112 nM.

Compound `N/C(=N\c1ccc(C(F)(F)F)cc1)N1CCN(c2cnc(-c3cccc(Cl)c3Cl)c(N)n2)CC1` has an IC50 [1] of 92.2 nM.

In the case of `N=C(N)N1CCN(c2cnc(-c3cccc(Cl)c3Cl)c(N)n2)CC1`, the IC50 [1] is reported as 414 nM.

Compound `COc1cccc(/N=C(\N)N2CCN(c3cnc(-c4cccc(Cl)c4Cl)c(N)n3)CC2)c1` has an IC50 [1] of 30.4 nM.

Compound `N/C(=N\c1cncnc1)N1CCN(c2cnc(-c3cccc(Cl)c3Cl)c(N)n2)CC1` has an IC50 [1] of 210 nM.

With `N/C(=N\c1ccc(F)cc1)N1CCN(c2cnc(-c3cccc(Cl)c3Cl)c(N)n2)CC1` the IC50 [1] was 53.3 nM.

In the case of `Nc1nc(N2CCN(S(N)(=O)=O)CC2)cnc1-c1cccc(Cl)c1Cl`, the IC50 [1] is reported as 3400 nM.

In the case of `N#Cc1ccc(/N=C(\N)N2CCN(c3cnc(-c4cccc(Cl)c4Cl)cn3)CC2)cc1`, the IC50 [1] is reported as 3760 nM.

In the case of `COc1cc(/N=C(\N)N2CCN(c3cnc(-c4cccc(Cl)c4Cl)c(N)n3)CC2)ccc1C#N`, the IC50 [1] is reported as 17.7 nM, the IC50 [2] is reported as greater than 30000 nM and the IC50 [3] is reported as greater than 30000 nM. It also gave an IC50 (MIA PaCa-2 [4]) of 6800 nM, an IC50 (KYSE-520 cell line) of 1800 nM and an Activity (MIA PaCa-2 [5]) of 88.63%. It also gave an Activity (MIA PaCa-2 [6]) of 4.98%, an Activity (MIA PaCa-2 [7]) of 6.18% and an Activity (MIA PaCa-2 [8]) of 0.21%. It also gave an Activity (MIA PaCa-2 [9]) of 79.83%, an Activity (MIA PaCa-2 [10]) of 7.47% and an Activity (MIA PaCa-2 [11]) of 12.55%. The Activity (MIA PaCa-2 [12]) was 0.15%, the Activity (MIA PaCa-2 [13]) was 63.59% and the Activity (MIA PaCa-2 [14]) was 12.54%. It also gave an Activity (MIA PaCa-2 [15]) of 23.65%, an Activity (MIA PaCa-2 [16]) of 0.22% and a half-life [17] of 1.9 h. It also gave a clearance [18] of 52.2 mL/min/kg, a Vd [19] of 8.4 L/kg and an AUC at 24 h [20] of 0.651 µM·h. It also gave a half-life [21] of 2 h, a Tmax [22] of 0.8 h and a Cmax [23] of 1090 nM. The AUC at 24 h [24] was 4.32 µM·h, the bioavailability [25] was 66.3% and the “inhibition (INH)” value (MIA PaCa-2 [26]) was 48%. For the same compound, the Activity [27] was “Non-Toxic”, the Activity [28] was “Non-Toxic” and the Activity (RAW264.7) was “Non-Toxic”. For the same compound, the Activity [29] was “Non-Toxic”, the Activity [30] was “Non-Toxic” and the Activity [31] was “Non-Toxic”.

`N/C(=N\c1ccsc1)N1CCN(c2cnc(-c3cccc(Cl)c3Cl)c(N)n2)CC1` gave an IC50 [1] of 48.1 nM.

`CNC(=O)c1ccc(/N=C(\N)N2CCN(c3cnc(-c4cccc(Cl)c4Cl)c(N)n3)CC2)cc1` gave an IC50 [1] of 3210 nM.

For `N#Cc1ccc(/N=C(\N)N2CCN(c3cnc(-c4cccc(Cl)c4Cl)c(N)n3)CC2)cn1`, the IC50 [1] was 74.2 nM.

Work on `N/C(=N\c1cccnc1)N1CCN(c2cnc(-c3cccc(Cl)c3Cl)c(N)n2)CC1` yielded an IC50 [1] of 142 nM.

With `NC(=S)N1CCN(c2cnc(-c3cccc(Cl)c3Cl)c(N)n2)CC1` the IC50 [1] was 1150 nM.

`N/C(=N\c1ccncc1)N1CCN(c2cnc(-c3cccc(Cl)c3Cl)c(N)n2)CC1` gave an IC50 [1] of 64.5 nM.
